# Data published in patent US5889148A, “Antibiotic peptides” (priority 1995, dated 1999).
# No end group written: not given here.
# How the values were obtained:
# red blood cells = type: cell-based, human
# Description: To 190 μl of the red blood cell-containing solution thus prepared, was added 10 μl of peptide solution prior to the incubation at 37° C. for 30 min. After incubation, centrifugation followed to obtain supernatant. Then, a level (%) of cell lysis caused by peptides was determined by the examination of absorbance at 576 nm (see: Table 12). At this moment, TEDFK, TEDFK-1A, M5, M6, M19, M22 and M32 were chosen as peptide fragments of Tenecin, and an antibiotic peptide KLK (see: Natori, S. et al., J. Biochem., 117(6):1312-1316(1995)) and a commercially available antibiotic, Amphotericin B(Sigma, USA) known to lyse a red blood cell were employed as controls, respectively.
# [1] = system: Staphylococcus aureus (ATCC 6538); test: MIC test, antibacterial activity; type: cell-based
# Description: (§1) Antibacterial and antifungal activities of the peptides were determined by employing MIC test as follows:
# (§2) To determine antifungal activity, a test organism Candida albicans (ATCC 36232) was cultured on Sabouraud dextrose agar plate for 24 to 48 hrs, and colonies thus grown were suspended on Sabouraud dextrose medium(Gibco, USA) to have O.D.530 =0.5(3×10^6 cells) and further diluted with 100-fold to have O.D.530 =0.005(3×10^4 cells). 100 μl of Candida albicans culture thus prepared was pipetted on 96-well microplates which had already contained 100 μl of a serially diluted peptide solution.
# Antibacterial activity of peptide was determined analogously as above, with an exception that Staphylococcus aureus (ATCC 6538) selected as a test organism was cultured on M-3 medium(Gibco, USA) at 37° C. and cell number was adjusted to 2×10^8 cells before 100-fold dilution.
# [2] = system: Candida albicans (ATCC 36232); test: MIC test, antifungal activity; type: cell-based
# Description: as §1, §2
# [3] = Table 3, addition of an amino acid to N-terminal of TED
# [4] = Table 4, addition of an amino acid to N-terminal of TEDF
# [5] = Table 1, peptide fragments of Tenecin
# [6] = Table 8, TEDFK derivatives of group 1
# [7] = Table 11, enantiomer, retro-inverso, D-amino acid derivatives of M22
molecule,measurement,setting,value
C[C@@H]1[C@H](O)[C@@H](C)/C=C/C=C/C=C/C=C/C=C/C=C/C=C/[C@H](O[C@@H]2O[C@H](C)[C@@H](O)[C@H](N)[C@@H]2O)C[C@@H]2O[C@](O)(C[C@@H](O)C[C@@H](O)[C@H](O)CC[C@@H](O)C[C@@H](O)CC(=O)O[C@H]1C)C[C@H](O)[C@H]2C(=O)O [Amphotericin B],cell lysis (in words),red blood cells,cause cell lysis
LYCNGKRVCVCR--NH2 (LYCNGKRVCVCR-NH2; cysteine pairing not given here) [TEDL],MIC S. aureus,[1]; [3],5 µg/mL
same,MIC C. albicans,[2]; [3],5 µg/mL
PYCNGKRVCVCR--NH2 (PYCNGKRVCVCR-NH2; cysteine pairing not given here) [TEDP],MIC S. aureus,[1]; [3],5 µg/mL
same,MIC C. albicans,[2]; [3],5 µg/mL
SFYCNGKRVCVCR--NH2 (SFYCNGKRVCVCR-NH2; cysteine pairing not given here) [TEDFS],MIC S. aureus,[1]; [4],50 µg/mL
same,MIC C. albicans,[2]; [4],10 µg/mL
SYCNGKRVCVCR--NH2 (SYCNGKRVCVCR-NH2; cysteine pairing not given here) [TEDS],MIC S. aureus,[1]; [3],10 µg/mL
same,MIC C. albicans,[2]; [3],50 µg/mL
VTCDILSSVEAKGVKL--NH2 (VTCDILSSVEAKGVKL-NH2) [TEC],MIC S. aureus,[1]; [5],> 500 µg/mL
same,MIC C. albicans,[2]; [5],> 100 µg/mL
VTCDILSVEAKGVKLNDAACAAHC-LFRGRSGGYCNGKRVCVCR--CO2 H [Tenecin],MIC S. aureus,[1]; [5],3 µg/mL
same,MIC C. albicans,[2]; [5],> 500 µg/mL
WFYCNGKRVCVCR--NH2 (WFYCNGKRVCVCR-NH2; cysteine pairing not given here) [M29],MIC S. aureus,[1]; [6],30 µg/mL
same,MIC C. albicans,[2]; [6],25 µg/mL
WFYCNGKRVCVCR--NH2 (WFYCNGKRVCVCR-NH2; cysteine pairing not given here) [TEDFW],MIC S. aureus,[1]; [4],1 µg/mL
same,MIC C. albicans,[2]; [4],10 µg/mL
WYCNGKRVCVCR--NH2 (WYCNGKRVCVCR-NH2; cysteine pairing not given here) [TEDW],MIC S. aureus,[1]; [3],20 µg/mL
same,MIC C. albicans,[2]; [3],20 µg/mL
YCNGKRVCVCR--NH2 (YCNGKRVCVCR-NH2; cysteine pairing not given here) [TED],MIC S. aureus,[1]; [5],10 µg/mL
same,MIC S. aureus,[1]; [3],10 µg/mL
same,antifungal activity (in words),[2],excellent antifungal activity
same,MIC C. albicans,[2]; [5],10 µg/mL
same,MIC against C. albicans,"[2]; Table 2, modification of N-terminal residues of TED",10 µg/mL
same,MIC C. albicans,[2]; [3],10 µg/mL
YCNGKRVCVCRKK--NH2 (YCNGKRVCVCRKK-NH2; cysteine pairing not given here) [M15],MIC S. aureus,[1]; [6],6.35 µg/mL
same,MIC C. albicans,[2]; [6],6.25 µg/mL
YFYCNGKRVCVCR--NH2 (YFYCNGKRVCVCR-NH2; cysteine pairing not given here) [TEDFY],MIC S. aureus,[1]; [4],50 µg/mL
same,MIC C. albicans,[2]; [4],100 µg/mL
kfycngkrvcvcr-NH2 [Enantiomer of TEDFK],MIC S. aureus,[1]; [7],6.35 µg/mL
same,MIC C. albicans,[2]; [7],6.35 µg/mL
rcvcvrkgncyfk-NH2 [Retro-inverso of TEDFK],MIC S. aureus,[1]; [7],6.25 µg/mL
same,MIC C. albicans,[2]; [7],6.25 µg/mL
